Assay [1] relates to DAOY cells. Put plainly: LDH release cytotoxicity assay. The assay is classed as cell-based, human. The note with it: 24 hours, 0, 5, 10 and 20 μM; high phosphorylated Cdc27. In general terms: LDH in the medium is a marker of cell lysis.
Protocol: Lactate dehydrogenase (LDH) levels as a measure of cell death were determined using the Non-radioactive Cytotoxicity kit (Promega, Madison, Wis.) according to manufacturer's instructions. […] Cell debris was removed by centrifugation. Viable cell LDH was collected from cells lysed by freezing for 15 minutes at −70° C. followed by thawing at 37° C. The medium was collected and cleared from cell debris by centrifugation. The relative release of LDH was determined as the ratio of released LDH versus total LDH from viable cells.
Data represent mean±SEM of three independent experiments.
The test system of assay [2] is Cdc27. Put plainly: Cdc27 immunoblot of cell lines after curcumin treatment. The format is cell-based. The following applies: 20 μM curcumin for 0, 4, 8 and 24 hours; DAOY, NT2, D283 Med, D341 Med, HCT116, HT1376, RT4, MDCK. How it is done: Cell lysates were prepared in a buffer containing 20 mM Tris (pH 7.5), 150 mM NaCl, 1 mM EDTA, 1 mM EGTA, 0.1% Triton X-100, 2.5 mM sodium pyrophosphate, 1 mM β-glycerol phosphate, 1 mM sodium vanadate, 1 mM phenylmethylsulfonyl fluoride and 5 μg/ml of antipapain, leupeptin and pepstatin (protease inhibitor cocktail). Protein concentrations were determined by the Dc protein assay (Bio-Rad, Hercules, Calif.). Equal amounts of protein were resolved by SDS-PAGE and transferred to nitrocellulose. The membranes were blocked in 5% non-fat milk in Tris-buffered saline with 0.1% […] (TBST). Primary antibodies diluted in 5% bovine serum albumin/TBST were incubated overnight at 4° C. and HRP-conjugated secondary antibodies in 5% non-fat milk/TBST for 2 hours at room temperature. Protein bands were visualized by Enhanced Chemiluminescence Plus (GE Healthcare, Piscataway, N.J.).
The cell lines DAOY, NT2, D283 Med, D341 Med (brain); HCT116 (colon); HT1376, RT4 (bladder); MDCK (kidney) were screened for Cdc27 phosphorylation by immunoblot of Cdc27. […] Actin immunoblot is shown as loading control.
Arrows indicate crosslinked Cdc27, while arrowheads show phosphorylated Cdc27. Equal amounts of protein were used as shown by actin immunoblot.
On the technique in general: In western blotting, separated proteins are transferred to a membrane and probed.

The target in assay [3] is T1, APC/C (Homo sapiens, UniProt P30260).
T1 construct: Cell pellets of control and curcumin-treated DAOY cells were snap frozen in liquid nitrogen; endogenous in cells; host or cells: DAOY cell lysate, 30 μg total protein
In words: In vitro APC assay (ubiquitin ligase activity on cyclin B). The format is biochemical. The note with it: DAOY released from G2/M block with 20 μM or 40 μM curcumin; two hours vs one hour of release. How it is done: In vitro APC assays were performed as described (Rajasekaran et al., Molecular Cancer Therapeutics 7(7); 2142-2151 (2008) using an in vitro transcribed and translated N-terminal fragment of cyclin B1 (cyclin B1-N1-102) as substrate, ^35S-methionine labeled cyclin B1-N1-102 was obtained using the TNT quick-coupled Transcription/Translation system (Promega, Madison, Wis.). Cell pellets of control and curcumin-treated DAOY cells were snap frozen in liquid nitrogen. The cell pellets were resuspended in an ice-cold hypotonic buffer (20 mM Hepes pH 7.6, 20 mM NaF, 1.5 mM MgCl2, 1 mM DTT, 5 mM KCl, 20 mM β-glycerophosphate, 250 μM NaVO3, 1 mM PMSF, and EDTA-free protease inhibitors) and incubated for 30 minutes on ice. The lysates were briefly homogenized and cleared by a 1 hour centrifugation at 13,000 rpm in a micro centrifuge. For the assay, 30 μg of total protein were added to reaction buffer containing 20 mM Tris pH 7.5, 20 mM NaCl, 5 mM MgCl2, 5 mM ATP-γ-S, 20 μg/ml MG-132, 0.5 μg UbcH10, 20 μM ubiquitin, 1 μm ubiquitin aldehyde, protease inhibitor, and 2 μl of in vitro translated ^35S-cyclin B1-N1-102 and incubated at 37° C. for 60 minutes. The reactions were stopped by adding sample buffer and proteins were separated by SDS-PAGE on a 4-15% gradient gel. To visualize the bands, the gel was incubated and enhanced with salicylate, dried, and then subjected to autoradiography. […]

Assay [4] concerns medulloblastoma. The note with it: medulloblastoma in vivo model; cited from earlier work.
In assay [5] the target is T2, cystic fibrosis transmembrane conductance regulator (CFTR) (Homo sapiens, UniProt P13569).
T2 construct: host or cells: microsomes and intact cells (not further described)
The following applies: in microsomes and in intact cells; cited from earlier work.

T2 sequence (P13569 whole entry, species assumed): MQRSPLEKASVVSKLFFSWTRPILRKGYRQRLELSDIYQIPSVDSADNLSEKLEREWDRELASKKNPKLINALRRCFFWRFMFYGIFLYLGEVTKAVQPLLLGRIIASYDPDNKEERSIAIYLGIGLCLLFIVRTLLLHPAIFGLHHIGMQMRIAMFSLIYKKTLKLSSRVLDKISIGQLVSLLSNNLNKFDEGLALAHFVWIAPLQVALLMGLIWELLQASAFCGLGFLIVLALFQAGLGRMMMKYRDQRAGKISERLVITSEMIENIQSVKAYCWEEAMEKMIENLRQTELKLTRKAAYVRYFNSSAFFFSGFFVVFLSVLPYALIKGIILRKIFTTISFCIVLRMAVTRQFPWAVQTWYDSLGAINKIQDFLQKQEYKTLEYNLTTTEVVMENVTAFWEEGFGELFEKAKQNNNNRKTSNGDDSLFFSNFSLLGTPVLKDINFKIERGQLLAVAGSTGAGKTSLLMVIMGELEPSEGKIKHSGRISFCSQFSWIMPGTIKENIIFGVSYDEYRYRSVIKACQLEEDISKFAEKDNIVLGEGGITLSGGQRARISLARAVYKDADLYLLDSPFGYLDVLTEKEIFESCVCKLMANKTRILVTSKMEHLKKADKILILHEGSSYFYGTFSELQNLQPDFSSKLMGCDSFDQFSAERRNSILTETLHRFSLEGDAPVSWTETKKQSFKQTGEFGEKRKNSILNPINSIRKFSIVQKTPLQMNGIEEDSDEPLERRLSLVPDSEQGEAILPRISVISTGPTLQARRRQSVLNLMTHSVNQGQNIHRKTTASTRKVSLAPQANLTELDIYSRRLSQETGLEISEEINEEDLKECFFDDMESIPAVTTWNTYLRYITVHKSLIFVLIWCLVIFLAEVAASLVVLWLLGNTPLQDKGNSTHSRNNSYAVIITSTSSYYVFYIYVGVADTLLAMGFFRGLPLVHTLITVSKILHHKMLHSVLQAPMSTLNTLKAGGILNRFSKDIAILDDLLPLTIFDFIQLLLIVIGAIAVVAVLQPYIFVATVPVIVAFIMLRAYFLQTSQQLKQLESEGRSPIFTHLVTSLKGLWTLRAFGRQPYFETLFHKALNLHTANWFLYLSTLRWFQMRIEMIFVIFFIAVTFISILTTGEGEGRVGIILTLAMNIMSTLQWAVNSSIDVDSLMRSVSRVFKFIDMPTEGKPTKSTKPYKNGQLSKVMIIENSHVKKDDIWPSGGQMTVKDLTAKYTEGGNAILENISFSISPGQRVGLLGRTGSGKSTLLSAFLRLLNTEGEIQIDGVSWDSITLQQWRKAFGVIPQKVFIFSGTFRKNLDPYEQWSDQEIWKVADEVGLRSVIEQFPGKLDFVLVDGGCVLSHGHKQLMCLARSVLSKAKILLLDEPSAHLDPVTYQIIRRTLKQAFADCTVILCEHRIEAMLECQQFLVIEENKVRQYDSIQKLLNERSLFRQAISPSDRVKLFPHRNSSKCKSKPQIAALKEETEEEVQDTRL

Regarding `COc1cc(/C=C/C(=O)CC(=O)/C=C/c2ccc(O)c(OC)c2)ccc1O` [Curcumin, (E,E)-1,7-bis(4-hydroxy-3-methoxyphenyl)-1,6-heptadiene-3,5-dion], the “sensitivity to curcumin-induced apoptosis (LDH release)” value in assay [1] is on record as “most sensitive”. The “crosslinking of Cdc27 in cell lines” value in assay [2] is “Only in cell lines with the phosphorylated form of Cdc27 was curcumin able to crosslink Cdc27”. In assay [3], the APC activity result is listed as “reduced”. Further, the medulloblastoma growth result in assay [4] is “can inhibit medulloblastoma growth”. In addition, the “crosslinking of CFTR polypeptides” value in assay [5] is given as “can crosslink CFTR polypeptides into SDS-resistant oligomers”.

The values are drawn from patent publication US8835124B2, “Method for treating cancer with agents that bind phosphorylated CDC27” (The Nemours Foundation, priority 2011, dated 2014).
